Entries after “also recorded” stand apart in the source; their conditions may differ.
Experiments:
[1] = system: mouse malignant melanoma cell line (B16F10); test: PD-L1 expression level by flow cytometry in B16F10 cells (Experimental Example 3); type: cell-based; details: inhibitor 50 μM with rPAI-1 40 nM, 2 days, listed as PAI-1 inhibitor
Experimental: (§1) Next, the PD-L1 expression level was determined by flow cytometry in the same manner as in Experimental Example 1.
(§2) Likewise, a mouse colorectal cancer cell line (MC38) and a mouse malignant melanoma cell line (B16F10) were also tested in the same manner, instead of the mouse leukemia cell line (32Dp210).

[2] = system: mouse leukemia cell line (32Dp210); test: PD-L1 expression in leukemic cells of mice transplanted with 32Dp210 (Experimental Example 5); type: in vivo, mice (C3H/HEJ); details: peripheral blood, 10 mg/kg orally once daily, 7 days, vs vehicle, listed as PAI-1 inhibitor
Experimental: Specifically, 5×10^5 cells of a mouse leukemia cell line (32Dp210) were transplanted into mice (C3H/HEJ), and engraftment was confirmed one week later. Subsequently, the PAI-1 inhibitor was orally administered once daily at 10 mg/kg for a total of 7 days. On the next day of the final administration, the peripheral blood or the spleen was collected from the mice. The spleen was mechanically dispersed by grinding through nylon mesh. The peripheral blood and spleen cells were independently hemolyzed with an ammonium chloride solution and then stained with an anti-PD-L1 antibody (clone name: 10F.G92) labeled with Allophycocyanin (APC) to determine the PD-L1 expression level in the leukemic cells with a flow cytometer. As a comparative control experiment, instead of the PAI-1 inhibitor, only physiological saline (vehicle) was administered to the mice transplanted with the mouse leukemia cell line, and the PD-L1 expression level in the leukemic cells was determined with a flow cytometer in the same manner as described above.

[3] = non-clinical and clinical studies (JP2020-088416A); cited from earlier work
[4] = system: M2 macrophages (CD11b+CD206+); test: PD-L1 expression in M2 macrophages of orally dosed mice (Experimental Example 7); type: in vivo, mice (C57BL6); details: peripheral blood; 10 mg/kg orally once daily, 7 days; vs vehicle
Experimental: Mice (C57BL6) were orally administered with the PAI-1 inhibitor once daily at 10 mg/kg for a total of 7 days. On the next day of the final administration, the peripheral blood or the spleen was collected from the mice. The spleen was mechanically dispersed through nylon mesh. The peripheral blood and spleen cells were independently hemolyzed with an ammonium chloride solution, and the PD-L1 expression level in M2 macrophages (CD11b^+CD206^+) was determined with a flow cytometer. As a comparative control experiment, the peripheral blood or the spleen was collected in the same manner from a mouse group to which only physiological saline (vehicle) was administered to determine the PD-L1 expression level in M2 macrophages (CD11b^+CD206^+).

[5] = system: mouse colorectal cancer cell line (MC38); test: MC38 tumor mass in immunodeficient and wild-type mice (Experimental Example 12); type: in vivo; details: 10 mg/kg orally once daily, 14 days, listed as PAI-1 inhibitor
Experimental: To confirm this point, the following experiment was performed. Specifically, 5×10^5 cells of a mouse colorectal cancer cell line (MC38) were subcutaneously transplanted into immunodeficient mice (Rag2/IL-2R-KO) and wild-type mice (WT, for control). The immunodeficient mice lacked the RAG2 gene and the IL-2 receptor γ chain gene, and immune cells (T cells, B cells, NK cells) were not congenitally present in the body. One week later, engraftment of more than 5 mm of a tumor mass in the major axis was confirmed. Subsequently, the PAI-1 inhibitor (10 mg/kg) or physiological saline (vehicle) was orally administered to each mouse once daily for a total of 14 consecutive days.

[6] = system: M2 macrophages; test: Macrophages and M2 macrophages in MC38 tumor mass by flow cytometry (Experimental Example 13); type: in vivo, mice (C57BL6); details: oral administration for one week, vs vehicle
Experimental: 1) The untreated group and 3) the single-administration group of PAI-1 inhibitor (cancer-bearing mice) of Experimental Example 11, after tumor engraftment, were orally administered with physiological saline (vehicle) or the PAI-1 inhibitor for one week. Thereafter, the tumors were collected, and the M2 macrophages were stained with an anti-CD45 antibody, an anti-CD11b antibody, an anti-F4/80 antibody, and an anti-CD206 antibody, and the percentage of M2 macrophages in the tumor mass was analyzed with a flow cytometer.

[7] = system: CD8+ T cells; test: Cytotoxic T cells in MC38 tumor mass by flow cytometry (Experimental Example 16); type: in vivo, mice (C57BL6); details: oral administration for one week, vs vehicle
Text: 1) The untreated group and 3) the single-administration group of PAI-1 inhibitor (cancer-bearing mice) of Experimental Example 11, after tumor engraftment, were orally administered with physiological saline (vehicle) or the PAI-1 inhibitor for one week. Thereafter, the tumor was collected, the T cells were stained with an anti-CD45 antibody, an anti-CD3 antibody, an anti-CD4 antibody, an anti-CD8 antibody, and an anti-perforin antibody, and the percentage of cytotoxic T cells in the tumor mass was determined with a flow cytometer.

[8] = system: mouse colorectal cancer cell line (MC38); test: PD-L1 expression level by flow cytometry in MC38 cells (Experimental Example 3); type: cell-based; details: inhibitor 50 μM with rPAI-1 40 nM, 2 days, listed as PAI-1 inhibitor
Experimental: as §1, §2

[9] = system: mouse leukemia cell line (32Dp210); test: PD-L1 mRNA expression by real-time PCR in 32Dp210 cells (Experimental Example 4); type: cell-based; details: inhibitor 50 μM with rPAI-1 40 nM or 100 nM, overnight, listed as PAI-1 inhibitor
Experimental: The culture supernatant of the cells overexpressing PAI-1 (32D PAI-1 OE) prepared in Experimental Example 1 (PAI-1 OE sup) was added to a mouse leukemia cell line (32Dp210). In addition, those obtained by adding the PAI-1 inhibitor to a concentration of 50 μM, together with rPAI-1 (40 nM or 100 nM), were also prepared. Then, culturing was performed on a 96-well plate at 37° C., 5% CO2, overnight. The cells were collected, RNA was extracted using ISOGEN2 (Nippon Gene Co., Ltd.), and 100 ng of RNA was subjected to a reverse transcription reaction using a PrimeScript RT-PCR kit (Takara Bio Inc.) to obtain cDNA. The PD-L1 gene expression level was monitored by real-time PCR using TaqMan Fast Advanced Master Mix (Thermo Fisher Scientific). PD-L1 (Mm00452054_m1, Thermo Fisher Scientific) was used as the primer. To standardize the RNA amount, the expression level of 18S rRNA (Hs99999901_s1, Thermo Fisher Scientific) was also measured simultaneously. The PD-L1 gene expression level was determined using a comparative Ct method, which was shown in the graph as a ratio relative to the control group.

O=C(Nc1ccc(Cl)cc1C(=O)[O-])c1cccc(-c2cccc3cccnc23)c1.[Na+] [Example 68, 5-chloro-2-(((3-(quinolin-8-yl)phenyl)carbonyl)amino)sodium benzoate]
PD-L1 expression induction by rPAI-1 [1]: completely inhibited the induction; also recorded: the same results as those of the leukemia cells | PD-L1 expression level in leukemia cells [2]: reduced PD-L1 expression level; also recorded: lower PD-L1 expression level | safety by oral administration [3]: no safety issues | PD-L1 expression level in M2 macrophages [4]: reduction in the PD-L1 expression level | tumor regression effect ([5]; immunodeficient mice (Rag2/IL-2R-KO)): no such an effect was observed; also recorded: not observed | tumor regression effect ([5]; wild-type mice (WT), 10 mg/kg): achieved a tumor regression effect; also recorded: observed | number of macrophages in the tumor [6]: reduced | percentage of M2 macrophages among macrophages [6]: reduced | percentage of intratumoral infiltration of CD8+ T cells (effector T cells) [7]: increased | PD-L1 expression induction by rPAI-1 [8]: completely inhibited the induction; also recorded: the same results as those of the leukemia cells | increase in PD-L1 mRNA expression by rPAI-1 [9]: inhibited the induction of the expression; also recorded: suppressed

— patent US20220340665A1, “INHIBITOR AGAINST EXPRESSION OF IMMUNE CHECKPOINT MOLECULE” (RENASCIENCE INC., priority 2019, published 2022)
